What was measured:
[1] = target: T1, human CB2 (hCB2) receptor (Homo sapiens, UniProt P34972); assay: Inhibition of forskolin-activated cAMP production upon activation of hCB2 (HTRF), CHO-K1 cells; type: cell-based; details: for ratio CB2 agonism over CB1 agonism: Table C-1, selectivity hCB2 over hCB1; for EC50: read-out: CB2 pEC50 (converted); for ratio CB2 over CB1 agonism: Table C-3, comparison of art compounds A to E with compounds of the invention
T1 construct: expressed in transfected cells; host or cells: CHO-K1
T1 sequence (P34972 whole entry): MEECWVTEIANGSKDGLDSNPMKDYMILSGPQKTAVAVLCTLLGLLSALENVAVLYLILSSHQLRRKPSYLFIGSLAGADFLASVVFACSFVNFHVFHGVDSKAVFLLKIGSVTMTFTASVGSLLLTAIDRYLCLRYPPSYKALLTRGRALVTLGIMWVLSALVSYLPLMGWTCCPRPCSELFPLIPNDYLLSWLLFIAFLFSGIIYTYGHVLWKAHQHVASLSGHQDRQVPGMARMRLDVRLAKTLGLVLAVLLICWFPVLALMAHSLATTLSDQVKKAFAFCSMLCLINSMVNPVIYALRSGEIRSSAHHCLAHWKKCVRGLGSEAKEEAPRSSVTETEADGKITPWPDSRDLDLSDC

[2] = target: T2, human CB1 (hCB1) receptor (Homo sapiens, UniProt P21554); assay: Inhibition of forskolin-activated cAMP production upon activation of hCB1 (HTRF), CHO-K1 cells; type: cell-based; details: forskolin-activated cAMP, pEC50=-log(EC50); for EC50: CB1 pEC50, hCB1-CHO-K1 cells; for CB1 pEC50: hCB1-CHO-K1 cells
T2 construct: expressed in transfected cells; host or cells: CHO-K1
T2 sequence (P21554 whole entry): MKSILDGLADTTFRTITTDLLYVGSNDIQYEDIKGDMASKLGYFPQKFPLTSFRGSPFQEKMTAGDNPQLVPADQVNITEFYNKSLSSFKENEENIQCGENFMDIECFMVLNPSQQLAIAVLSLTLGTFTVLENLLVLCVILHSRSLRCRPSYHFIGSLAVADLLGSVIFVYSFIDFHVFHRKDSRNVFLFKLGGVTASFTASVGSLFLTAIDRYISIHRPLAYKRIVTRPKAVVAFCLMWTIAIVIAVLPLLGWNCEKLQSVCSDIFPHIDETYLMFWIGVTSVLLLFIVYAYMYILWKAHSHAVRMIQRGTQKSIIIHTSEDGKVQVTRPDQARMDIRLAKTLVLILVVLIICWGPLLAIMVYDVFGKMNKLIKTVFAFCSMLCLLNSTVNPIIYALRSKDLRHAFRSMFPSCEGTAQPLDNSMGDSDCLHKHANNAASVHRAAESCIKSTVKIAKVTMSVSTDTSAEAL
Procedure, shortened: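 CHO-K1 cells stably expressing hCB1 (20,000/well) were in HBSS stimulation buffer (1 mM IBMX, 10 mM MgCl2, 0.1% BSA, pH 7.4), with 6 μM forskolin in the compound buffer, 30 min at room temperature in the dark. cAMP was read as HTRF 665/620 ratio, normalized to DMSO and CP55490. Outputs were pEC50 and inhibition at 10 μM relative to CP55490.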

[3] = hCB2-CHO-K1 cells, forskolin-activated cAMP, pEC50=-log(EC50)

For `CC(C)(C)c1nc2cc(S(=O)(=O)c3ccc(S(C)(=O)=O)s3)ccc2n1CC1CCOCC1` [Co. No. 57], the “ratio CB2 agonism over CB1 agonism” value ([1]; listed as 57) was 1328, the EC50 [1, 3] was 1.1 nM and the EC50 [2] was 1450 nM. For the same compound, the melting point was 216 °C.
With `CC(C)(C)c1nc2cc(S(=O)(=O)c3sc(S(C)(=O)=O)cc3Br)ccc2n1CC1CCOCC1` [Co. No. 62] the “ratio CB2 agonism over CB1 agonism” value ([1]; listed as 62) was 3299, the EC50 [1, 3] was 0.589 nM and the EC50 [2] was 1950 nM. The melting point was 200 °C.
In the case of `CC(=O)NCCc1cc(S(=O)(=O)c2ccc3c(c2)nc(C(C)(C)C)n3CC2CCOCC2)ccn1` [Co. No. 158], the “ratio CB2 agonism over CB1 agonism” value [1] is reported as 5888, the “CB2 pEC50” value [1, 3] is reported as 8.85 and the “CB1 pEC50” value [2] is reported as 5.08. For the same compound, the melting point was 160.3 °C.
For `CC(=O)N1CCC(Cn2c(C(C)(C)C)nc3cc(S(=O)(=O)c4cnn(C)c4)ccc32)CC1` [Co. No. 168], the “ratio CB2 agonism over CB1 agonism” value [1] was greater than 1230, the EC50 [1, 3] was 8.13 nM and the EC50 [2] was greater than 10000 nM. It also gave a melting point of 166.2 °C.
With `CC(C)(C)c1nc2cc(S(=O)(=O)c3ccc(C#N)o3)ccc2n1CC1CCOCC1` [Co. No. 60] the “ratio CB2 agonism over CB1 agonism” value [1] was 638, the EC50 [1, 3] was 1.05 nM and the EC50 [2] was 661 nM. For the same compound, the melting point was 145.5 to 145.7 °C.
For `CC(C)(C)c1nc2cc(S(=O)(=O)c3cncc(C#N)c3)ccc2n1CC1CCCCC1` [Co. No. 36], the “ratio CB2 agonism over CB1 agonism” value [1] was 108, the EC50 [1, 3] was 0.676 nM and the EC50 [2] was 72.4 nM. The melting point was 215 to 216 °C.
For `CC(=O)NCc1ccc(S(=O)(=O)c2ccc3c(c2)nc(C(C)(C)C)n3CC2CCOCC2)cn1` [Co. No. 117], the “ratio CB2 agonism over CB1 agonism” value [1] was 219, the EC50 [1, 3] was 4.47 nM and the EC50 [2] was 977 nM. It also gave a melting point of 199.4 °C.
In the case of `CC(=O)NCCNc1cc(S(=O)(=O)c2ccc3c(c2)nc(C(C)(C)C)n3CC2CCOCC2)ccn1` [Co. No. 123], the “ratio CB2 agonism over CB1 agonism” value [1] is reported as greater than 2399, the EC50 [1, 3] is reported as 4.17 nM and the EC50 [2] is reported as greater than 10000 nM. For the same compound, the melting point was 217.2 °C.
With `CC(=O)c1ccc(S(=O)(=O)c2ccc3c(c2)nc(C(C)(C)C)n3CC2CCOCC2)cn1` [Co. No. 50] the “ratio CB2 agonism over CB1 agonism” value [1] was 6457, the EC50 [1, 3] was 0.692 nM and the EC50 [2] was 4470 nM. For the same compound, the melting point was 162 °C.
For `CC(C)(C)c1nc2cc(S(=O)(=O)c3cc[n+]([O-])cc3)ccc2n1CC1CCOCC1` [Co. No. 3], the EC50 [1, 3] was 1.74 nM, the EC50 [2] was 692 nM and the melting point was 203 °C.
With `COCCOc1cc(S(=O)(=O)c2ccc3c(c2)nc(C(C)(C)C)n3CC2CCOCC2)ccn1` [Co. No. 150] the “ratio CB2 agonism over CB1 agonism” value [1] was 638, the EC50 [1, 3] was 1.26 nM and the “CB1 pEC50” value [2] was 6.09. It also gave a melting point of 142.9 °C.
With `CC(C)(C)c1nc2cc(S(=O)(=O)c3cc(Cl)nc(Cl)c3)ccc2n1CC1CCOCC1` [Co. No. 71] the “ratio CB2 agonism over CB1 agonism” value [1] was greater than 13490, the EC50 [1, 3] was 0.741 nM and the EC50 [2] was greater than 10000 nM. The melting point was 198 °C.
For `COCCCc1cc(S(=O)(=O)c2ccc3c(c2)nc(C(C)(C)C)n3CC2CCOCC2)ccn1` [Co. No. 154], the “ratio CB2 agonism over CB1 agonism” value [1] was greater than 9016, the EC50 [1, 3] was 1.12 nM and the EC50 [2] was greater than 10000 nM. It also gave a melting point of 143.4 °C.
In the case of `CC(C)(C)c1nc2cc(S(=O)(=O)c3cncc(C#N)c3)ccc2n1CC1CCOCC1` [Co. No. 43], the “ratio CB2 agonism over CB1 agonism” value [1] is reported as 1622, the EC50 [1, 3] is reported as 1 nM and the EC50 [2] is reported as 1620 nM. For the same compound, the melting point was 240 °C.
With `Cn1cc(S(=O)(=O)c2ccc3c(c2)nc(C(C)(C)C)n3CC2CCOCC2)ccc1=O` [Co. No. 28] the “ratio CB2 agonism over CB1 agonism” value [1] was greater than 3467, the “ratio CB2 over CB1 agonism” value [1] was 3467 and the EC50 [1, 3] was 2.88 nM. It also gave an EC50 [2] greater than 10000 nM and a melting point of 170 °C.
In the case of `CC(C)(C)c1nc2cc(S(=O)(=O)c3cc(Cl)cc(Cl)n3)ccc2n1CC1CCOCC1` [Co. No. 10], the “ratio CB2 agonism over CB1 agonism” value [1] is reported as 12883, the “ratio CB2 over CB1 agonism” value [1] is reported as 12883 and the EC50 [1, 3] is reported as 0.741 nM. The EC50 [2] was 9550 nM and the melting point was 137.43 °C.
In the case of `CC(C)(C)c1nc2cc(S(=O)(=O)c3ccn(CC(F)(F)F)c(=O)c3)ccc2n1CC1CCOCC1` [Co. No. 97], the “ratio CB2 agonism over CB1 agonism” value [1] is reported as 2065, the EC50 [1, 3] is reported as 1.86 nM and the EC50 [2] is reported as 3890 nM. For the same compound, the melting point was 152.9 °C.
With `Cn1cc(S(=O)(=O)c2ccc3c(c2)nc(C(C)(C)C)n3CC2CCN(C=O)CC2)cn1` [Co. No. 156] the “ratio CB2 agonism over CB1 agonism” value [1] was 617, the EC50 [1, 3] was 4.07 nM and the EC50 [2] was 2510 nM. The melting point was 213.9 °C.
For `CC(C)(C)c1nc2cc(S(=O)(=O)c3ccc(O)nc3)ccc2n1CC1CCOCC1` [Co. No. 1], the “ratio CB2 agonism over CB1 agonism” value [1] was greater than 1995, the “ratio CB2 over CB1 agonism” value [1] was 1995 and the EC50 [1, 3] was 5.01 nM. For the same compound, the EC50 [2] was greater than 10000 nM and the melting point was 251 °C.
For `CC(C)(C)c1nc2cc(S(=O)(=O)c3ccc(S(C)(=O)=O)o3)ccc2n1CC1CCOCC1` [Co. No. 20], the “ratio CB2 agonism over CB1 agonism” value [1] was 347, the “ratio CB2 over CB1 agonism” value [1] was 346 and the EC50 [1, 3] was 1.26 nM. The EC50 [2] was 437 nM and the melting point was 165.2 °C.
In the case of `CC(C)(C)c1nc2cc(S(=O)(=O)c3coc(C4OCCO4)c3)ccc2n1CC1CCOCC1` [Co. No. 55], the “ratio CB2 agonism over CB1 agonism” value [1] is reported as 363, the EC50 [1, 3] is reported as 2.29 nM and the EC50 [2] is reported as 832 nM. For the same compound, the melting point was 141 °C.
For `COCCCNc1cc(S(=O)(=O)c2ccc3c(c2)nc(C(C)(C)C)n3CC2CCOCC2)ccn1` [Co. No. 126], the “ratio CB2 agonism over CB1 agonism” value [1] was 1129, the EC50 [1, 3] was 0.851 nM and the “CB1 pEC50” value [2] was 6.02. For the same compound, the melting point was 148.3 °C.
For `COC(=O)c1ccc(S(=O)(=O)c2ccc3c(c2)nc(C(C)(C)C)n3CC2CCOCC2)nc1` [Co. No. 30], the “ratio CB2 agonism over CB1 agonism” value [1] was 3055, the EC50 [1, 3] was 1.7 nM and the EC50 [2] was 5250 nM. The melting point was 195 to 197 °C.
With `CC(C)(C)c1nc2cc(S(=O)(=O)c3ccnc(Cl)c3)ccc2n1CC1CCOCC1` [Co. No. 18] the “ratio CB2 agonism over CB1 agonism” value [1] was 933, the EC50 [1, 3] was 0.676 nM and the EC50 [2] was 631 nM. It also gave a melting point of 201 °C.
For `CC(C)(C)c1nc2cc(S(=O)(=O)c3ccnc(OCC(F)(F)F)c3)ccc2n1CC1CCOCC1` [Co. No. 23], the “ratio CB2 agonism over CB1 agonism” value [1] was 398, the “ratio CB2 over CB1 agonism” value [1] was 398 and the EC50 [1, 3] was 1.02 nM. For the same compound, the EC50 [2] was 407 nM and the melting point was 166.7 °C.
In the case of `CC(C)(C)c1nc2cc(S(=O)(=O)c3ccc(C#N)nc3)ccc2n1CC1CCOCC1` [Co. No. 51], the “ratio CB2 agonism over CB1 agonism” value [1] is reported as 73, the EC50 [1, 3] is reported as 1.23 nM and the EC50 [2] is reported as 89.1 nM. The melting point was 228 °C.
In the case of `CC(C)(C)c1nc2cc(S(=O)(=O)c3ccnc(C(N)=O)c3)ccc2n1CC1CCOCC1` [Co. No. 16], the “ratio CB2 agonism over CB1 agonism” value [1] is reported as 359, the EC50 [1, 3] is reported as 2.34 nM and the EC50 [2] is reported as 851 nM. For the same compound, the melting point was 247.1 °C.
In the case of `CC(C)(C)c1nc2cc(S(=O)(=O)c3cncc(C(N)=O)c3)ccc2n1CC1CCOCC1` [Co. No. 44], the “ratio CB2 agonism over CB1 agonism” value [1] is reported as 64, the EC50 [1, 3] is reported as 2 nM and the EC50 [2] is reported as 126 nM. For the same compound, the melting point was 259 °C.

— patent US9284303B2, “Benzimidazole cannabinoid agonists bearing a substituted heterocyclic group” (priority 2006, dated 2016)
